The results in this text go back to patent US7977317B2, “Compositions and methods for modulating blood-brain barrier transport” (Raptor Pharmaceutical Inc., priority 2001, dated 2011).

Assay [1] relates to bovine brain capillary endothelial cell monolayers. Nature of the assay: Competition of [125I]-p97 binding on bovine brain capillary endothelial cell monolayers. The settings on record: [125I]-p97 25 nM, 2 h at 4° C., competitor 7.5 micromolar (FIG. 3). Here is the method: FIG. 3. Binding of p97 on bovine brain capillary endothelial cell monolayers. Binding p97 was performed with BBCECs that were pre-incubated 2 hrs in Ringer-Hepes to avoid any interference from the astrocytes. For the binding experiments, cells were incubated for 2 h at 4° C. in Ringer/Hepes in the presence of [^125I]-p97 (25 nM) and 7.5 micromolar concentrations of cold-p97, transferrin or lactoferrin, respectively. At the end of the incubation, the filters were gently washed at 4° C. three times with 4 ml of cold-PBS. Then the associated radioactivity of endothelial cells was determined by removing the membrane of the culture insert and counting it in a gamma counter.
B. Binding studies of p97. Binding of p97 was performed with BBCECs and Rat Brain Endothelial Cells that were pre-incubated 2 hrs in Ringer/Hepes to avoid any interference from the astrocytes.
For the binding experiments, cells were incubated for 2 h at 4° C. in Ringer/Hepes in the presence of [^125I]-p97 (25 nM) and increasing concentrations of cold-p97 or high (7.5 micromolar) concentrations of transferrin or lactoferrin. At the end of the incubation, the filters were gently washed at 4° C. three times with 4 ml of cold-PBS. Then the associated radioactivity of endothelial cells was determined by removing the membrane of the culture insert and counting it in a gamma counter.

The test system of the next assay is RBE4 cells. The experiment in a line: Competition of [125I]-p97 binding on rat brain endothelial cells (RBE4). The conditions noted are these: competitor 10 micromolar, 2 hrs at 4° C. (FIG. 4). Here is the method:
FIG. 4. Binding of p97 on rat brain endothelial cells. Binding p97 was performed with RBE4 that were pre-incubated 2 hrs in Ringer-Hepes. For the binding experiments, cells in 24-well microplates were incubated for 2 h at 4° C. in Ringer/Hepes in the presence of [^125I]-p97 (25 nM) and 10 micromolar concentrations of cold-p97, transferrin or lactoferin, respectively. At the end of the incubation, the cells were gently washed at 4° C. three times with 4 ml of cold-PBS. RBE4 cells were then lysed with Triton X-100 and the associated radioactivity of with cell lysates was determined.
RBE4 cells were grown in monolayers in 24 wells plastic tissue culture flasks at 37° C. under 5% CO2 in minimum essential medium Alpha and Ham's F10 (1:1) supplemented with 10% heat inactivated fetal bovine serum. For p97 binding experiments, RBE4 cells were pre-incubated at 37° C. for 2 hrs in Ringer/Hepes. ^125I-p97 in 200 μl of Ringer/Hepes was added to RBE4 cells for 2 hrs at 4° C. in the presence or absence of high concentration of cold-p97, human holo-transferrin or human lactoferrin. After the incubation, the cells were washed 4 times with PBS and the ^125I-p97 associated with the cells was measured.

The next assay deals with BBCEC monolayers. The experiment in a line: Accumulation of ligands in BBCEC monolayers. The class given is cell-based, bovine. The settings on record: FIG. 7. Here is the method: FIG. 7 illustrates the results of experiments where the ligands p97, Lf and Tf were heated or not heated prior to the binding study. In all cases, binding experiments were conducted in the transwell apparatus as described previously, with the exception that binding was conducted at either 4° C. or at 37° C. For the 37° C. trial, a separate experiment was conducted where the ligand was boiled for 30 mins then rapidly cooled prior to administration on the transwell plates.
FIG. 13 illustrates the transcytosis and accumulation of p97 and transferrin in BBCEC monolayers. FIG. 13a, Transcytosis experiments were performed at 37° C. (solid bars) or 4° C. (white bars). [^125I]-p97 or bovine [^125I]-holo-transferrin (1 mg/ml) was added to the upper side of the cell-covered filter. At the end of the experiment, radiolabelled proteins were measured in the lower chamber of each well by TCA precipitation (n=4). […] The surface plasmon resonance response obtained for native p97 and boiled p97 was plotted (in relative units (RU)) as a function of time; FIG. 13c, The accumulation of both proteins into BBEC cells were also measured. […] Accumulation of both denatured proteins (grey bars) was also measured at 37° C. Filters were then removed, and the radioactivity associated with the cells was quantified (n=3). […]

With “transferrin: transferrin (Tf), iron-binding serum protein used as comparator and competitor”, the “Inhibition of [125I]-p97 binding to BBCECs” value in assay [1] is “did not block or reduce”. For the same substance, the “Inhibition of [125I]-p97 binding to RBE4 cells” value with RBE4 cells was “does not”. The “Accumulation in BBB model cells” value in the assay with BBCEC monolayers is “very little accumulation”.
